Source: US20150183781A1, “5-(1H-Pyrazol-4-yl)-1H-Pyrrolo[2,3-b]Pyridine Derivatives as Kinase Inhibitors” (AURIGENE DISCOVERY TECHNOLOGIES LIMITED, priority 2012, published 2015)
pIC50: −log10 of the molar value. Structures can show the parent of a compound that is named as a salt.

Biological target: T1, recombinant human ALK enzyme (Homo sapiens, UniProt Q9UM73)
T1 construct: purchased Carna Biosciences 08-518
Assay: ALK WT cell free assay (TR-FRET)
Type: biochemical
Conditions: 1 μM ATP; for inhibition at 1 µM: compound 1 μM, read-out: Percentage Inhibition 1 μM; for inhibition at 1 µM / inhibition at 0.1 µM: 30 min pre-incubation; for inhibition at 0.1 µM: compound 100 nM, read-out: Percentage Inhibition 100 nM; for pIC50: 10 point dose response, read-out: IC50 value (in range)
Method: The ALK WT cell free assay was set up to evaluate the effects of these compounds as inhibitors of ALK enzyme. The enzymatic assay was standardized using recombinant human ALK enzyme (Cat#08-518) from Carna Biosciences using Ultra Light Poly GT (Cat# TRF […]) from Perkin Elmer as a substrate. TR-FRET (Time resolved fluorescence resonance energy transfer) detection technology was used for the read out. […] The assay reaction time with the substrate was 30 minutes after which the antibody detection mix is added. The TR-FRET signal (Excitation at 340 nm, Emission at 615 nm and 665 nm) was read with 50 μs delay time on Victor^3 V fluorimeter. The data is calculated using the ratio of reading at 665 nm to 615 nm. […] Compounds were screened at 100 nM and 1 μM concentrations with pre-incubation of the enzymes with compound for 30 minutes.

T1 sequence (Q9UM73 1058-1620 limits assumed): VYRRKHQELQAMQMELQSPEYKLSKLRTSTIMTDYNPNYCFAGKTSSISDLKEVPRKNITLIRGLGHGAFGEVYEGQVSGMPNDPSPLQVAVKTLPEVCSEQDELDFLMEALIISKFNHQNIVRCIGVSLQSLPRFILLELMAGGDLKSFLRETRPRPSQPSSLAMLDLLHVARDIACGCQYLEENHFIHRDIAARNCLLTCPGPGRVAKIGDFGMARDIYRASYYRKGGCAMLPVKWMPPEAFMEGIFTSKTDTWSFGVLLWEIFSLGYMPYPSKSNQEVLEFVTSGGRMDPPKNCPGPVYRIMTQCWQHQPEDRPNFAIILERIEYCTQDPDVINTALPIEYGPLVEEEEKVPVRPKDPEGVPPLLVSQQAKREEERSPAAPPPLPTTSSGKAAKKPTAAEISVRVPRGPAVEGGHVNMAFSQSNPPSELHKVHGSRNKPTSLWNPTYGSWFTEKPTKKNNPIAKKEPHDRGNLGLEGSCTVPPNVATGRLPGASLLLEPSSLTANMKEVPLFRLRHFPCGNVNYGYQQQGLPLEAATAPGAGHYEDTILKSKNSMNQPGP

| inhibition at 1 µM | inhibition at 0.1 µM | pIC50 | SMILES |
| --- | --- | --- | --- |
| 90% | – | – | Cn1cc(-c2cnc3[nH]cc(-c4cnn(Cc5cccc(N)c5)c4)c3c2)cn1 [Example-21, 3-((4-(5-(1-methyl-1H-pyrazol-4-yl)-1H-pyrrolo[2,3-b]pyridin-3-yl)-1H-pyrazol-1-yl)methyl)aniline] |
| 6% | 6% | – | Cn1cc(-c2cnc3[nH]cc(-c4cn(Cc5cccc(F)c5)nc4C(C)(C)C)c3c2)cn1 [Example-15] |
| 98% | 79% | > 7.30 | Cc1c(-c2c[nH]c3ncc(-c4cnn(C5CCNCC5)c4)cc23)cnn1Cc1cccc(F)c1 [Example-27] |
| 21% | – | – | Cn1cc(-c2cnc3[nH]cc(-c4cnn(Cc5ccc(C(C)(C)C)cc5)c4)c3c2)cn1 [Example-9, 3-(1-(4-(tert-butyl)benzyl)-1H-pyrazol-4-yl)-5-(1-methyl-1H-pyrazol-4-yl)-1H-pyrrolo[2,3-b]pyridine] |
| 98% | 96% | > 7.30 | OCCn1cc(-c2cnc3[nH]cc(-c4cnn(Cc5cccc(F)c5)c4)c3c2)cn1 [Example-28, 2-(4-(3-(1-(3-fluorobenzyl)-1H-pyrazol-4-yl)-1H-pyrrolo[2,3-b]pyridin-5-yl)-1H-pyrazol-1-yl)ethanol] |
| 99% | 88% | > 7.30 | OCCCn1cc(-c2cnc3[nH]cc(-c4cnn(Cc5cccc(F)c5)c4)c3c2)cn1 [Example-30] |
| 100% | 97% | > 7.30 | Fc1cc(F)cc(Cn2cc(-c3c[nH]c4ncc(-c5cnn(C6CCNCC6)c5)cc34)cn2)c1 [Example-22, 3-(1-(3,5-difluorobenzyl)-1H-pyrazol-4-yl)-5-(1-(piperidin-4-yl)-1H-pyrazol-4yl)-1H-pyrrolo[2,3-b]pyridinehydrochloride] |
| 89% | 62% | 6.70 to 7.30 | Cn1cc(-c2cnc3[nH]cc(-c4cn(Cc5cccc(F)c5)nc4C(F)(F)F)c3c2)cn1 [Example-17] |
| 42% | – | – | COC(=O)c1cccc(Cn2cc(-c3c[nH]c4ncc(-c5cnn(C)c5)cc34)cn2)c1 [Example-6] |
| 99% | 90% | > 7.30 | C[C@H](O)CN1CCC(n2cc(-c3cnc4[nH]cc(-c5cnn(Cc6cccc(F)c6)c5)c4c3)cn2)CC1 [Example-32, (S)-1-(4-(4-(3-(1-(3-fluorobenzyl)-1H-pyrazol-4-yl)-1H-pyrrolo[2,3-b]pyridin-5-yl)-1H-pyrazol-1-yl)piperidin-1-yl)propan-2-ol] |
| 94% | 76% | > 7.30 | Cc1nn(Cc2cccc(F)c2)c(C)c1-c1c[nH]c2ncc(-c3cnn(C4CCNCC4)c3)cc12 [Example-24] |
| 92% | 53% | 6.70 to 7.30 | Cn1cc(-c2cnc3[nH]cc(-c4cnn(CCc5ccccc5)c4)c3c2)cn1 [Example-20A] |
| 100% | – | > 7.30 | Cn1cc(-c2cnc3[nH]cc(-c4cnn(Cc5cc(F)cc(F)c5)c4)c3c2)cn1 [Example-14] |
| 77% | – | < 6.70 | Cn1cc(-c2cnc3[nH]cc(-c4cnn(Cc5cccc(C(F)(F)F)c5)c4)c3c2)cn1 [Example-11] |
| 92% | 49% | 6.70 to 7.30 | Cn1cc(-c2cnc3[nH]cc(-c4cnn(Cc5cccc([N+](=O)[O-])c5)c4)c3c2)cn1 [Example-16, 5-(1-methyl-1H-pyrazol-4-yl)-3-(1-(3-nitrobenzyl)-1H-pyrazol-4-yl)-1H-pyrrolo[2,3-b]pyridine] |
| 96% | 79% | > 7.30 | Cc1nn(Cc2cccc(F)c2)cc1-c1c[nH]c2ncc(-c3cnn(C4CCNCC4)c3)cc12 [Example-26] |

| inhibition at 1 µM | inhibition at 0.1 µM | pIC50 | SMILES |
| --- | --- | --- | --- |
| 100% | – | > 7.30 | Cn1cc(-c2cnc3[nH]cc(-c4cnn(Cc5cccc(F)c5)c4)c3c2)cn1 [Example-3] |
| 95% | 59% | 6.70 to 7.30 | c1ccc(CCn2cc(-c3c[nH]c4ncc(-c5cnn(C6CCNCC6)c5)cc34)cn2)cc1 [Example-31, 3-(1-phenethyl-1H-pyrazol-4-yl)-5-(1-(piperidin-4-yl)-1H-pyrazol-4-yl)-1H-pyrrolo[2,3-b]pyridine] |
| 93% | 45% | < 6.70 | Cc1nn(Cc2cc(Cl)ccc2F)cc1-c1c[nH]c2ncc(-c3cnn(C)c3)cc12 [Example-7] |
| 96% | 80% | > 7.30 | Cc1nn(Cc2cc(F)cc(F)c2)c(C)c1-c1c[nH]c2ncc(-c3cnn(C)c3)cc12 [Example-19] |
| 100% | 73% | > 7.30 | Cc1nn(Cc2cccc(F)c2)c(C)c1-c1c[nH]c2ncc(-c3cnn(CCO)c3)cc12 [Example-29] |
| 95% | – | > 7.30 | Cn1cc(-c2cnc3[nH]cc(-c4cnn(Cc5cccc(C#N)c5)c4)c3c2)cn1 [Example-5] |
| 99% | 81% | > 7.30 | Cn1cc(-c2cnc3[nH]cc(-c4cnn(Cc5cccc(O)c5)c4)c3c2)cn1 [Example-20] |
| 94% | 80% | > 7.30 | Fc1cccc(Cn2cc(-c3c[nH]c4ncc(-c5cnn(C6CCNCC6)c5)cc34)cn2)c1 [Example-23] |
| 98% | – | > 7.30 | Cn1cc(-c2cnc3[nH]cc(-c4cnn(Cc5cc(F)ccc5F)c4)c3c2)cn1 [Example-10] |
| 96% | 79% | > 7.30 | Cc1nn(Cc2cccc(F)c2)c(C)c1-c1c[nH]c2ncc(-c3cnn(C)c3)cc12 [Example-18] |
| 96% | – | > 7.30 | Cn1cc(-c2cnc3[nH]cc(-c4cnn(Cc5cccc(Cl)c5)c4)c3c2)cn1 [Example-13] |
| 93% | – | 6.70 to 7.30 | Cn1cc(-c2cnc3[nH]cc(-c4cnn(Cc5ccc(F)cc5)c4)c3c2)cn1 [Example-4] |
| 98% | – | 6.70 to 7.30 | Cn1cc(-c2cnc3[nH]cc(-c4cnn(Cc5ccccc5)c4)c3c2)cn1 [Example-8] |
| 95% | 70% | 6.70 to 7.30 | Cc1nn(Cc2cccc(O)c2)c(C)c1-c1c[nH]c2ncc(-c3cnn(C4CCNCC4)c3)cc12 [Example-25] |
| 95% | – | 6.70 to 7.30 | Cn1cc(-c2cnc3[nH]cc(-c4cnn(Cc5ccccc5F)c4)c3c2)cn1 [Example-1, 3-(1-(2-fluorobenzyl)-1H-pyrazol-4-yl)-5-(1-methyl-1H-pyrazol-4-yl)-1H-pyrrolo[2,3-b]pyridine] |
